Measurements published in patent US8124834B2, “Use of active cytokinin synthase gene” (Riken, priority 2006, dated 2012).

B1: AtLOG7: Arabidopsis thaliana LOG homolog protein, gene At5g06300, amino acid sequence SEQ ID NO: 14, purified from E. coli (protein, listed as Arabidopsis sp.)
chain: MEETKSRFKRICVFCGSSSGKKPSYQEAAIQLGNELVERRIDLVYGGGSVGLMGLVSQAVHHGGRHVLGVIPKTLMPREITGETIGEVKAVADMHQRKAEMARQADAFIALPGGYGTLEELLEVITWAQLGIHRKPVGLLNVDGYYNSLLTFIDKAVDEGFISPMARRIIVSAPNAKELVRQLEEYEPEFDEITSKLVWDEVDRISYVPGSEVATAT
B2: AtLOG8: Arabidopsis thaliana LOG homolog protein, gene At5g11950, amino acid sequence SEQ ID NO: 16, purified from E. coli (protein, listed as Arabidopsis sp.)
chain: MEDNQRSRFRKICVFCGSHSGHREVFSDAAIELGNELVKRKIDLVYGGGSVGLMGLISRRVYEGGLHVLGIIPKALMPIEISGETVGDVRVVADMHERKAAMAQEAEAFIALPGGYGTMEELLEMITWSQLGIHKKTVGLLNVDGYYNNLLALFDTGVEEGFIKPGARNIVVSAPTAKELMEKMEEYTPSHMHVASHESWKVEELGDYPGQENKPQ
B3: AtLOG4: Arabidopsis thaliana LOG homolog protein, gene At3g53450, amino acid sequence SEQ ID NO: 10, purified from E. coli (protein, listed as Arabidopsis sp.)
chain: MEVNNETMQKSKFGRICVFCGSSQGKKSSYQDAAVDLGNELVLRNIDLVYGGGSIGLMGLVSQAVHDGGRHVIGVIPKTLMPRELTGETVGEVRAVADMHQRKAEMARHSDAFIALPGGYGTLEELLEVITWAQLGIHDKPVGLLNVDGYYNSLLSFIDKAVEEGFISTNARQIIISAPTAKELVKKLEEYSPCHESVATKLCWEIERIDYSSED
B4: AtLOG2: Arabidopsis thaliana LOG homolog protein, gene At2g35990, amino acid sequence SEQ ID NO: 6, purified from E. coli (protein, listed as Arabidopsis sp.)
chain: MEETKSRFRRICVFCGSSSGNKTTYHDAALQLAHQLVERNIDLVYGGGSVGLMGLISQAVHDGGRHVLGIIPKSLAPREITGESIGEVITVSTMHQRKAEMGRQADAFIALPGGYGTFEELLEVITWSQLGIHTKPVGLLNVDGFYDSLLTFIDKAVDEGFVSSTARRIIVSAPNAPQLLQLLEEYVPKHDDFVSKMVWDNTTDAFTLEGDSF
B5: AtLOG5: Arabidopsis thaliana LOG homolog protein, gene At4g35190, amino acid sequence SEQ ID NO: 12, purified from E. coli (protein, listed as Arabidopsis sp.)
chain: MEIVKSRFKRVCVFCGSSSGKRECYSDAATDLAQELVTRRLNLVYGGGSIGLMGLVSQAVHEAGGHVLGIIPRTLMDKEITGETYGEVIAVADMHERKAEMARHSDCFIALPGGYGTLEELLEVIAWAQLGIHDKPVGLLNVDGYYNYLLTFIDKAVDDGFIKPSQRHIFVSAPNAKELVQKLEAYKPVNDGVIAKSRWEVEKKVQQPQQQQQVVFCSNTSMQTEIAL
B6: AtLOG3: Arabidopsis thaliana LOG homolog protein, gene At2g37210, amino acid sequence SEQ ID NO: 8, purified from E. coli (protein, listed as Arabidopsis sp.)
chain: MEIKGESMQKSKFRRICVFCGSSQGKKSSYQDAAVDLGNELVSRNIDLVYGGGSIGLMGLVSQAVHDGGRHVIGIIPKTLMPRELTGETVGEVRAVADMHQRKAEMAKHSDAFIALPGGYGTLEELLEVITWAQLGIHDKPVGLLNVDGYYNSLLSFIDKAVEEGFISPTAREIIVSAPTAKELVKKLEEYAPCHERVATKLCWEMERIGYSSEE
B7: AtLOG1: Arabidopsis thaliana LOG homolog protein, gene At2g28305, amino acid sequence SEQ ID NO: 4, purified from E. coli (protein, listed as Arabidopsis sp.)
chain: MEIESKFKRICVFCGSSAGNKVSYKDAAIELGTELVSRNIDLVYGGGSIGLMGLISQAVFNGGRHVIGVIPKTLMPREITGETVGEVKAVADMHQRKAEMAKHSDAFIALPGGYGTLEELLEVITWAQLGIHDKPVGLLNVEGYYNSLLSFIDKAVEEGFISPTARHIIVSAPSAKELVKKLEDYVPRHEKVASKKSWEMEQIGLSPTCEISR

Key:
LOG protein [1] = molecular target: T1, LOG protein (Oryza sativa subsp. japonica, UniProt Q5ZC82); assay: Substrate specificity of LOG protein to nucleotide cytokinin forms and AMP; assay type: biochemical; set-up: the protein coding region of the LOG gene cDNA was inserted into pCOLD-I (TaKaRa), a His-tag protein expression vector; made in house; host or cells: E. coli BL21(DE3)[pG-Tf2]; details: 0.02 μg LOG protein, 100 μM substrate, pH 6.5, 4 minutes (iPRDP, iPRTP: 0.01 μg, 2 minutes)
T1 sequence (Q5ZC82 1-242): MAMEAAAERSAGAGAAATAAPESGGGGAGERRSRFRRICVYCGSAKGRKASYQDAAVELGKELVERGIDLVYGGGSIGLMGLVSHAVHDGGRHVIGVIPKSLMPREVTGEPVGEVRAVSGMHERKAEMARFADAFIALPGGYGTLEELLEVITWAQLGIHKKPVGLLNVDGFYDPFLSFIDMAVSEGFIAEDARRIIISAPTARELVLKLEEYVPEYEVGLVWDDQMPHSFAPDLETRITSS
Method: The reaction specificity of the LOG protein to a nucleotide cytokinin form was analyzed. […] The following 7 types of substrates were used: iPRMP, tZRMP, dihydrozeatin riboside 5′-monophosphate (DZRMP), cZR 5′-monophosphate (cZRMP), iPR 5′-diphosphate (iPRDP), iPR 5′-triphosphate (iPRTP), and AMP. The reaction conditions are as follows. 0.02 μg of the LOG protein was used for a single reaction, and it was reacted with a 100 μM substrate in 200 μl of a reaction solution containing 50 mM Tris-HCl, 1 mM MgCl2, 1 mM DTT, pH 6.5. Thereafter, 0 minute and 4 minutes after initiation of the reaction, 600 μl of cold acetone was added to the reaction solution to terminate the reaction. The reaction solution was left at rest at −80° C. for 30 minutes, and it was then centrifuged at 15,000 rpm for 20 minutes. Thereafter, a supernatant was dried using a centrifugal thickener. […] Only the injection amount was changed to 50 μl. In the case of iPRDP and iPRTP, the amount of a reaction solution was determined to be 100 μl, the mass of a protein used was determined to be 0.01 μg, and the reaction time was determined to be 2 minutes.

LOG protein [2] = molecular target: T1, LOG protein; assay: Detection of enzyme activity of recombinant LOG protein with cytokinin substrates (HPLC); assay type: biochemical; set-up: the protein coding region of the LOG gene cDNA was inserted into pCOLD-I (TaKaRa), a His-tag protein expression vector; made in house; host or cells: E. coli BL21(DE3)[pG-Tf2]; details: 3 μg LOG protein, 50 μM substrate, pH7, 30° C., 2 hours, HPLC absorption at 270 nm
Method: The following 8 types of cytokinin substrates were used: N^6-(delta-2-isopentenyl)adenine (iP), trans-zeatin (tZ), cis-zeatin (cZ), iP riboside (iPR), tZ riboside (tZR), cZ riboside (cZR), iPR 5′-monophosphate (iPRMP), and tZR 5′-monophosphate (tZRMP). As reaction conditions, 100 μl of a reaction solution containing 50 mM Tris-HCl, 1 mM MgCl2, and a 50 μM substrate, pH7 was incubated at 30° C. for 2 hours. Thereafter, 10 μl of 20% acetic acid was added to the reaction solution to terminate the reaction, and the reaction solution was then centrifuged at 15,000 rpm at a room temperature for 20 minutes. […] For elution, solvent C (100% acetonitrile) and solvent D (2% acetic acid) were used.

[3] = Enzyme properties of AtLOG 1, 2, 3, 4, 5, 7 and 8 proteins having iPRMP as substrate; assay type: biochemical, Arabidopsis thaliana
Method: In order to obtain the Km value of the LOG protein to typical substrates iPRMP and tZRMP, the following experiment was carried out. 0.02 μg of LOG protein was used for a single reaction, and it was reacted with a substrate in a substrate concentration of each of 5, 8, 15, 30 and 100 μM in 200 μl of a reaction solution containing 50 mM Tris-HCl, 1 mM MgCl2, 1 mM DTT, pH 6.5. Thereafter, 0 minute, 2 minutes and 4 minutes after initiation of the reaction, 600 μl of cold acetone was added to the reaction solution to terminate the reaction. The reaction solution was left at rest at −80° C. for 30 minutes, and it was then centrifuged at 15,000 rpm for 20 minutes. Thereafter, a supernatant was dried using a centrifugal thickener. The resultant was dissolved in 100 μl of 2% acetic acid, and a reaction product was then detected and quantified under the same conditions as those for the liquid chromatography of Example 2. Only the injection amount was changed to 50 μl. The aforementioned experiment was carried out three times, and the Km value was calculated.
The enzyme activity of each of the purified AtLOG proteins was evaluated under the same reaction conditions as those of Example 2. […] In addition, the enzyme property of each AtLOG protein to iPRMP was determined in the same manner as in Example 5 (Table 4). In Table 4, the Km, Vmax and Kcat values were calculated based on a reaction under the optimal pH condition of each AtLOG protein.

Molecule	reactivity of the substrate with recombinant LOG protein (conversion to base form) (LOG protein [2])	Optimal pH [3] [pH]	other results
CC(CO)CCNc1ncnc2c1ncn2C1OC(COP(=O)(O)O)C(O)C1O (stereo not drawn) [DZRMP, dihydrozeatin riboside 5′-monophosphate]			reactivity of LOG protein to the substrate (substrate specificity) (LOG protein [1]): uses as a substrate
C/C(=C/CNc1ncnc2nc[nH]c12)CO [cZ, cis-zeatin]	no reactivity		
C/C(=C/CNc1ncnc2c1ncn2[C@@H]1O[C@H](CO)[C@@H](O)[C@H]1O)CO [cZR, cZ riboside]	no reactivity		
CC(C)=CCNc1ncnc2nc[nH]c12 [iP, N^6-(delta-2-isopentenyl)adenine]	no reactivity		
CC(C)=CCNc1ncnc2c1ncn2[C@@H]1O[C@H](CO)[C@@H](O)[C@H]1O [iPR, iP riboside]	no reactivity		
C/C(=C\CNc1ncnc2nc[nH]c12)CO [tZ, trans-zeatin]	no reactivity		
C/C(=C\CNc1ncnc2c1ncn2[C@@H]1O[C@H](CO)[C@@H](O)[C@H]1O)CO [tZR, tZ riboside]	no reactivity		
cis-zeatin riboside 5′-monophosphate [cZRMP]			reactivity of LOG protein to the substrate (substrate specificity) (LOG protein [1]): uses as a substrate
B1		6.5	
B2		7.0	
B3		6.5	
B4		6.5	
B5		5.4	
B6		6.5	
B7		6.5	
